Values after ≈ are worked out from the molar mass of the structure shown.

The conditions of this data set: for aqueous solubility: pH 6.8.

Molecule `COc1ccc2c(c1)CCCN(C(=O)NCCc1ccccn1)C2` came in with an intrinsic clearance, human liver microsomes of 174 mL/min/kg and an intrinsic clearance, rat liver microsomes of 1400 mL/min/kg.
Turning to `CNC(=O)c1cnc(/C=C/c2csc(-c3cccs3)n2)s1`, the MDR1-MDCK efflux ratio was determined as 0.521; the intrinsic clearance, human liver microsomes is 34.4 mL/min/kg; the intrinsic clearance, rat liver microsomes came to 217 mL/min/kg; the aqueous solubility came out at 8.88 µg/mL (≈ 26.6 µM).
With `CN1CCC(N(Cc2cccnc2)C(=O)NCCCc2ccccc2)CC1`, the MDR1-MDCK efflux ratio turned out to be 131; the intrinsic clearance, human liver microsomes amounted to 6.28 mL/min/kg; the intrinsic clearance, rat liver microsomes amounted to 1140 mL/min/kg.
Turning to `O[C@@H]1CO[C@H]2C[C@@H]1Nc1c(Cc3ccccc3)cccc12`, the MDR1-MDCK efflux ratio was found to be 0.47; the intrinsic clearance, human liver microsomes came out at 33.5 mL/min/kg; the intrinsic clearance, rat liver microsomes came out at 354 mL/min/kg; the aqueous solubility was determined as 30 µg/mL (≈ 106 µM).
The matching figures for `Cc1ccc(C)c2c(O)cc(CN3CC(c4ccccn4)C3)nc12`: 4.2, 36.5 mL/min/kg, 1050 mL/min/kg and 58.3 µg/mL (≈ 183 µM).
Regarding `Cn1cc(-c2nc(C(=O)Nc3cccnc3-n3cncn3)cs2)cn1`, the aqueous solubility came out at 1.92 µg/mL (≈ 5.43 µM).
On to `COCc1cccc(NC(=O)c2cn(C)c3ccccc23)c1`, for which the aqueous solubility came to 3.71 µg/mL (≈ 12.6 µM).
Regarding `COc1c(C)cccc1CN1CCC(O)(c2ccc(F)cc2)CC1`, the MDR1-MDCK efflux ratio was found to be 0.581; the intrinsic clearance, human liver microsomes came to 27.8 mL/min/kg; the intrinsic clearance, rat liver microsomes came to 1280 mL/min/kg; the aqueous solubility was 39.7 µg/mL (≈ 121 µM).
Consider `COc1ccc(OCc2nn3c(-c4ccc(OC)cc4)nnc3s2)cc1`, for which the MDR1-MDCK efflux ratio came out at 0.536 and the aqueous solubility turned out to be 0.2 µg/mL (≈ 0.543 µM).
In the case of `CCOC(=O)Nc1cc(-c2ccc(C)c(NS(C)(=O)=O)c2)nn2c(C)nnc12`, the MDR1-MDCK efflux ratio was 28.4; the intrinsic clearance, human liver microsomes came out at 7.01 mL/min/kg; the intrinsic clearance, rat liver microsomes worked out at 124 mL/min/kg; the aqueous solubility was 51.4 µg/mL (≈ 127 µM).
As for `Nc1c(-c2ccc(F)cc2)ncn1Cc1ccccc1`, the intrinsic clearance, human liver microsomes amounted to 14.6 mL/min/kg and the intrinsic clearance, rat liver microsomes was 372 mL/min/kg.
In turn, `Cn1c(=O)n(-c2ccc(C(C)(C)C#N)cc2)c2c3cc(-c4cnc5ccccc5c4)ccc3ncc21` displayed an intrinsic clearance, human liver microsomes of 67.3 mL/min/kg and an intrinsic clearance, rat liver microsomes of 91.3 mL/min/kg.
The corresponding values for `O=C(Nc1ccc(C2CCCCC2)cc1)c1ccc(S(=O)(=O)NCc2cccnc2)cc1` are 194 mL/min/kg and 604 mL/min/kg.
As to `CCCc1cc(CNS(=O)(=O)c2cc(-c3cnc(C)o3)ccc2C)on1`, the MDR1-MDCK efflux ratio is 7.7; the intrinsic clearance, human liver microsomes amounted to 392 mL/min/kg; the intrinsic clearance, rat liver microsomes worked out at 2500 mL/min/kg.
The matching figures for `Cc1[nH]nc(CCC(=O)NCCCOC2CCCC2)c1C`: 14.4, 33.6 mL/min/kg and 2410 mL/min/kg.
Consider `O=C(O)c1nc(-c2ccccc2)oc1-c1ccccc1`, for which the MDR1-MDCK efflux ratio amounted to 0.802; the intrinsic clearance, human liver microsomes was found to be 6.99 mL/min/kg; the intrinsic clearance, rat liver microsomes was no more than 10.7 mL/min/kg; the aqueous solubility amounted to 40.8 µg/mL (≈ 154 µM).
As for `Fc1cc(Br)ccc1CNCc1ccccn1`, the MDR1-MDCK efflux ratio was 12; the intrinsic clearance, human liver microsomes came to 26.5 mL/min/kg; the intrinsic clearance, rat liver microsomes was 445 mL/min/kg.
Turning to `Cc1ccc(-c2nc(NCc3ccco3)ncc2-c2cc(C)no2)cn1`, the MDR1-MDCK efflux ratio worked out at 0.989; the intrinsic clearance, human liver microsomes came to 87.5 mL/min/kg; the intrinsic clearance, rat liver microsomes is 492 mL/min/kg; the aqueous solubility is 10.3 µg/mL (≈ 29.7 µM).
`C#CCNC(=O)c1ccc(OC)c(OC)c1` showed an aqueous solubility of 26.9 µg/mL (≈ 123 µM).
In the case of `O=C(Nc1nnc(SCc2ccc(F)cc2)s1)C1CCC1`, the MDR1-MDCK efflux ratio turned out to be 0.689; the intrinsic clearance, human liver microsomes was found to be 52 mL/min/kg; the intrinsic clearance, rat liver microsomes is 1650 mL/min/kg.
Regarding `CN1CCCN(C(=O)Nc2cccc(OCC(F)F)n2)CC1`, the intrinsic clearance, human liver microsomes was no more than 4.74 mL/min/kg and the intrinsic clearance, rat liver microsomes is 191 mL/min/kg.
Take `Cc1noc(NCc2c(C)nn(C)c2C)n1`: the MDR1-MDCK efflux ratio stood at 1.34; the intrinsic clearance, human liver microsomes was no more than 4.74 mL/min/kg; the intrinsic clearance, rat liver microsomes is no more than 10.7 mL/min/kg.
`CN(CCn1cnc(C#N)c1C#N)c1ccccc1`: the MDR1-MDCK efflux ratio stood at 0.634; the intrinsic clearance, human liver microsomes is 52.4 mL/min/kg; the intrinsic clearance, rat liver microsomes amounted to 1060 mL/min/kg.
Regarding `CCCNC(=O)NS(=O)(=O)c1ccc(Cl)cc1`, the fraction unbound, human plasma came to 0.0933; the fraction unbound, rat plasma came to 0.0425; the intrinsic clearance, human liver microsomes was no more than 4.74 mL/min/kg; the intrinsic clearance, rat liver microsomes worked out at 15.2 mL/min/kg.
Regarding `CCCCn1nc(-c2ccc(C)o2)nc1CNC`, the MDR1-MDCK efflux ratio is 1.32; the intrinsic clearance, human liver microsomes was determined as 14.3 mL/min/kg; the intrinsic clearance, rat liver microsomes was found to be 239 mL/min/kg; the aqueous solubility worked out at 29.3 µg/mL (≈ 118 µM).
Molecule `O=C(Nc1ccccc1)c1scnc1-c1ccccc1` had an intrinsic clearance, human liver microsomes of 110 mL/min/kg and an intrinsic clearance, rat liver microsomes of 1040 mL/min/kg.
In the case of `Cc1cc(C)n(-c2ccc(C(=O)NCc3cccnc3)cc2)n1`, the MDR1-MDCK efflux ratio stood at 4.95; the intrinsic clearance, human liver microsomes is no more than 4.74 mL/min/kg; the intrinsic clearance, rat liver microsomes worked out at 94.4 mL/min/kg; the aqueous solubility was 45.4 µg/mL (≈ 148 µM).
In the case of `COc1ccc(C(C)(C)C)cc1NC(=O)C1(C#N)CCCC1`, the MDR1-MDCK efflux ratio was 0.478 and the aqueous solubility turned out to be 0.3 µg/mL (≈ 0.999 µM).
The matching figures for `Cc1oc2cc(OCC(=O)Nc3nccs3)ccc2c(=O)c1Oc1ccc(F)cc1`: 0.97 and 0.5 µg/mL (≈ 1.17 µM).
For `COC(=O)c1ccc(NC(=O)N(C)Cc2ccccc2CN2CCCC2)cc1`, the MDR1-MDCK efflux ratio came out at 7.85; the intrinsic clearance, human liver microsomes amounted to 18.2 mL/min/kg; the intrinsic clearance, rat liver microsomes is 277 mL/min/kg; the aqueous solubility was 40.8 µg/mL (≈ 107 µM).
The corresponding values for `COCCNc1cc(NC(=O)N2CCCc3cc(CN4CCN(C)CC4=O)c(C=O)nc32)ncc1C#N` are 46, 14.4 mL/min/kg, 24 mL/min/kg and 20 µg/mL (≈ 39.5 µM).
The molecule `CCOc1ccc2nc3c(cc2c1)CN(CCOC)C(=O)O3` came in with an intrinsic clearance, human liver microsomes of 12 mL/min/kg and an intrinsic clearance, rat liver microsomes of 215 mL/min/kg.
For `NC(=O)c1cccc(Cn2cnc3c(oc4ccccc43)c2=O)c1`, the MDR1-MDCK efflux ratio turned out to be 13.9; the intrinsic clearance, human liver microsomes was no more than 4.74 mL/min/kg; the intrinsic clearance, rat liver microsomes turned out to be 19 mL/min/kg.
For `c1ccc(OCCN2CCN(c3ncccn3)CC2)cc1`, the MDR1-MDCK efflux ratio turned out to be 0.534; the intrinsic clearance, human liver microsomes was determined as 126 mL/min/kg; the intrinsic clearance, rat liver microsomes turned out to be 516 mL/min/kg.
In the case of `CNCc1cc(N(C)C)nc(C2CCCN2C(=O)C2CN(Cc3ccc(Cl)cc3)C2)n1` (configuration not stated), the MDR1-MDCK efflux ratio was found to be 46.8; the intrinsic clearance, human liver microsomes stood at 8.66 mL/min/kg; the intrinsic clearance, rat liver microsomes was 28.4 mL/min/kg.
In the case of `CCCN(CC)c1ccc(C(=O)N2CCCN(C(C)=O)CC2)cc1`, the MDR1-MDCK efflux ratio was 6.92; the intrinsic clearance, human liver microsomes amounted to 25.7 mL/min/kg; the intrinsic clearance, rat liver microsomes worked out at 308 mL/min/kg; the aqueous solubility worked out at 48.4 µg/mL (≈ 146 µM).
Take `C[C@@H](c1ccc(F)cc1)n1nnc2cnc3ccc(-c4ccc5ocnc5c4)cc3c21`: the aqueous solubility is 0.47 µg/mL (≈ 1.15 µM).
For `CC(C)n1ccc(C(=O)N2CCS(=O)(=O)C(C)(C)C2)n1`, the MDR1-MDCK efflux ratio is 2.42; the intrinsic clearance, human liver microsomes is no more than 4.74 mL/min/kg; the intrinsic clearance, rat liver microsomes is 33.7 mL/min/kg; the aqueous solubility worked out at 46.4 µg/mL (≈ 155 µM).
Molecule `COCC(=O)N1CCN2C(=O)NC[C@H]2C1` yielded an aqueous solubility of 38.4 µg/mL (≈ 180 µM).
In turn, `Cc1ccc(OCC(=O)Nc2cc(C)on2)nc1` had an intrinsic clearance, human liver microsomes of no more than 4.74 mL/min/kg and an intrinsic clearance, rat liver microsomes of no more than 10.7 mL/min/kg.
Consider `c1ccc2c(c1)CN(c1cnc3ccccc3n1)CCN2`, for which the MDR1-MDCK efflux ratio amounted to 0.54; the intrinsic clearance, human liver microsomes is 93.9 mL/min/kg; the intrinsic clearance, rat liver microsomes was 628 mL/min/kg; the aqueous solubility is 25.1 µg/mL (≈ 90.8 µM).
For the molecule `CN(Cc1ccncc1)Cc1cc2ccccc2nc1O`, the MDR1-MDCK efflux ratio is 2.51; the intrinsic clearance, human liver microsomes is 15.4 mL/min/kg; the intrinsic clearance, rat liver microsomes was determined as 222 mL/min/kg; the aqueous solubility amounted to 48.6 µg/mL (≈ 174 µM).
Consider `CCCNC(=O)c1ccnc(N(C)C)c1`, for which the MDR1-MDCK efflux ratio came out at 0.616; the intrinsic clearance, human liver microsomes is 39 mL/min/kg; the intrinsic clearance, rat liver microsomes stood at 83.5 mL/min/kg; the aqueous solubility was determined as 38.1 µg/mL (≈ 184 µM).
`COc1cccc(-c2nnn(Cc3cc(F)cc4cccnc34)n2)c1`: the MDR1-MDCK efflux ratio worked out at 0.486 and the aqueous solubility came out at 0.14 µg/mL (≈ 0.417 µM).
In the case of `CNc1ncnc2c1ncn2[C@H]1CC[C@H](NC(=O)CCCNC(=O)OC(C)(C)C)[C@H](O)[C@H]1O`, the MDR1-MDCK efflux ratio stood at 3.2; the intrinsic clearance, human liver microsomes was 5.08 mL/min/kg; the intrinsic clearance, rat liver microsomes is 19.9 mL/min/kg.
In the case of `CN1CCN(C(=O)c2cc(Br)cnc2Cl)c2cnccc21`, the MDR1-MDCK efflux ratio was determined as 4.54; the intrinsic clearance, human liver microsomes came out at 9.09 mL/min/kg; the intrinsic clearance, rat liver microsomes was found to be 90.8 mL/min/kg; the aqueous solubility was 57.8 µg/mL (≈ 157 µM).
Take `Cn1cc(Nc2nccc(N3CC4CCC(C3)N4C(=O)[C@@H]3CC3(F)F)n2)cn1`: the MDR1-MDCK efflux ratio came to 39.9; the fraction unbound, human plasma was 0.44; the fraction unbound, rat plasma amounted to 0.612; the intrinsic clearance, human liver microsomes is 7.26 mL/min/kg. For the same molecule, the intrinsic clearance, rat liver microsomes stood at 32.5 mL/min/kg.
With `Clc1ccc(COc2cccc(N3CCNCC3)c2)cc1`, the intrinsic clearance, human liver microsomes is 5.23 mL/min/kg; the intrinsic clearance, rat liver microsomes was 320 mL/min/kg; the aqueous solubility came out at 23.2 µg/mL (≈ 76.6 µM).
The molecule `Cc1noc(Cc2ccc(C)c(O)c2)n1` returned an intrinsic clearance, human liver microsomes of 10.7 mL/min/kg and an intrinsic clearance, rat liver microsomes of 52.2 mL/min/kg.
Turning to `Cc1nnc2ccc(N3CCC4(CCCCC4)C3)nn12`, the MDR1-MDCK efflux ratio turned out to be 0.709; the intrinsic clearance, human liver microsomes turned out to be 33.2 mL/min/kg; the intrinsic clearance, rat liver microsomes was 600 mL/min/kg.
